Experimental data: paper PMC6185871, “Discovery of super soft-drug modulators of sphingosine-1-phosphate receptor 1” (Bioorganic & Medicinal Chemistry Letters, 2018)

Tests used:
[1] = Chromatographic hydrophobicity index (CHI) logD by reverse-phase HPLC; assay type: physicochemical
[2] = in vitro; assay type: in vitro ADME, human; settings: for half-life: human, plasma
Method: (§1) We selected human plasma stability as a model for human blood metabolism. […] S1PR1 activity was measured using a PathHunter β-Arrestin recruitment assay.[23]

[3] = target: T1, S1PR1 (Homo sapiens, UniProt P21453); experiment: PathHunter CHO-K1 EDG1 β-Arrestin recruitment assay; assay type: cell-based
T1 construct: host or cells: CHO-K1 (PathHunter EDG1 β-Arrestin cell line)
T1 sequence (P21453 whole entry): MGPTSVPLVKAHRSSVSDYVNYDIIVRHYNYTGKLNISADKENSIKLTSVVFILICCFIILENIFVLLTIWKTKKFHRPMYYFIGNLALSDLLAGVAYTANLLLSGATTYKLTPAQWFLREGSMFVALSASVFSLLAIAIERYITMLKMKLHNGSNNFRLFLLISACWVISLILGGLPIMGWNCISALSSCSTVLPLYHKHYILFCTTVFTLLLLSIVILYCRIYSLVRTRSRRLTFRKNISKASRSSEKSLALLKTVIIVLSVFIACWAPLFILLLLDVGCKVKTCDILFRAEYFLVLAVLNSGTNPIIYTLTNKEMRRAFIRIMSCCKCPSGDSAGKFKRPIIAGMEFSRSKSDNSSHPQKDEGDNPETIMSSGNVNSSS
Method: as §1
[23] The PathHunter® CHO‐K1 EDG1 β‐Arrestin Cell Line (Discoverx) was used to assess agonist activity of the compounds. Briefly, compound at 5× desired concentration was added to cells and incubated at 37 °C for 90 min. Assay signal was generated through a single addition of PathHunter Detection reagent cocktail, followed by a one hour incubation at room temperature. Microplates were read following signal generation with a PerkinElmer Envision instrument for chemiluminescent signal detection. Percentage activity was calculated using the following formula: % Activity = 100% × (mean RLU of test sample − mean RLU of vehicle control)/(mean MAX control ligand − mean RLU of vehicle control).

[4] = Kinetic aqueous solubility by laser nephelometry; assay type: physicochemical
[5] = Human skin S9 stability; assay type: in vitro ADME; settings: human skin S9 fraction, skin S9 over 180 mins in the presence of enzymatic cofactors
Text: It may be that the esterases responsible for the metabolism of 12f are present in both human plasma and skin S9 fraction or that skin and plasma esterases have similar substrate affinities.

[6] = tested on: plaque psoriasis; design: method as in PMID 25127208; settings: oral, phase II clinical trial of psoriasis; cited from earlier work
[7] = tested on: Langerhans cells migrating to the lymph node; design: method as in PMID 19194476; settings: mice, topical application; cited from earlier work
[8] = PathHunter β-Arrestin, n of 2, geometric mean, range in brackets

SMILES	CHI logD [1]	half-life [2]	Kinetic solubility [4]	S1PR1 pIC50 [3, 8]	further results
CCC/N=C1\S/C(=C\c2ccc(OC[C@H](O)CO)c(Cl)c2)C(=O)N1c1ccccc1O [Compound 6]	–	–	–	–	IC50 ([3]; PathHunter β-Arrestin, n of 2, geometric mean, range in brackets, read-out: S1PR1 pIC50 (converted)): 0.0126 µM
CCC/N=C1\S/C(=C\c2ccc(C(=O)OC)c(Cl)c2)C(=O)N1c1ccccc1C [Compound 5a]	>4.4	> 3 h	39 µM	8.6 (0.1)	improvement in S1PR1 activity compared to 5b ([3]; compared to 5b): 100 fold
CCC/N=C1\S/C(=C\c2ccc(C(=O)OCCO)cc2)C(=O)N1c1ccccc1C [Compound 5c]	3.4	> 3 h	–	6.9 (0)	–
CCC/N=C1\S/C(=C\c2ccc(C(=O)NCCO)cc2)C(=O)N1c1ccccc1C [Compound 5d]	2.3	> 3 h	>250 µM	7.0 (0)	–
CCC/N=C1\S/C(=C\c2ccc(C(=O)O)cc2)C(=O)N1c1ccccc1C [Compound 4a]	1.0	–	163 µM	<6 (0)	–
CCC/N=C1\S/C(=C\c2ccc(C(=O)O)cc2)C(=O)N1c1ccccc1O [Compound 11]	–	> 3 h	–	–	S1PR1 modulator activity (in words) [3]: inactive
CCC/N=C1\S/C(=C\c2ccc(OC[C@H](O)CO)c(Cl)c2)C(=O)N1c1ccccc1C [Ponesimod, ponesimod, reference compound]	3.1	> 3 h	110 µM	7.9 (0)	systemic side effects observed [6]: lymphopenia and transient bradycardia
CCC/N=C1\S/C(=C\c2ccc(C(=O)OC)cc2)C(=O)N1c1ccccc1C [Compound 5b]	>4.4	> 3 h	28 µM	6.5 (0)	–
CCCCCCCCc1ccc(CCC(N)(CO)CO)cc1 [fingolimod]	–	–	–	–	number of Langerhans cells migrating to the lymph node [7]: reduction

Further lines, with some results ahead:

CHI logD [1]	half-life [2]	Kinetic solubility [4]	S1PR1 pIC50 [3, 8]	SMILES	further results
3.2	> 3 h	–	–	CCC/N=C1\S/C(=C\c2ccc(CC(=O)OC)cc2)C(=O)N1c1ccccc1O [Compound 15a]	–
1.9	> 3 h	–	–	CCC/N=C1\S/C(=C\c2ccc(C(=O)NCC(=O)N(C)C)cc2)C(=O)N1c1ccccc1O [Compound 12a]	metabolism in human plasma stability assay (in words) [2]: lack of metabolism
2.8	1.02 h	79 µM	–	CCC/N=C1\S/C(=C\c2ccc(C(=O)OCC3COC(=O)O3)cc2)C(=O)N1c1ccccc1O (stereo not drawn) [Compound 12e]	metabolism in human plasma stability assay (in words) [2]: did not show sufficient clearance; half-life at 3 h [5]: 0.667 h
3.3	0.15 h	79 µM	–	CCC/N=C1\S/C(=C\c2ccc(C(=O)OCc3oc(=O)oc3C)cc2)C(=O)N1c1ccccc1O [Compound 12f]	S1PR1 modulator activity (in words) [3]: inactive; metabolism in human plasma stability assay (in words) [2]: rapidly degraded; half-life at 3 h [5]: 0.383 h
1.8	> 3 h	>250 µM	–	CCC/N=C1\S/C(=C\c2ccc(C(=O)OCC(O)CO)cc2)C(=O)N1c1ccccc1O (stereo not drawn) [Compound 12c]	–
2.3	> 3 h	183 µM	–	CCC/N=C1\S/C(=C\c2ccc(C(=O)OCCCO)cc2)C(=O)N1c1ccccc1O [Compound 12b]	–
3.0	3 h	117 µM	–	CCC/N=C1\S/C(=C\c2ccc(C(=O)OCCN3CCOCC3)cc2)C(=O)N1c1ccccc1O [Compound 12d]	half-life at 3 h [5]: 2.53 h
3.5	> 3 h	79 µM	–	CCC/N=C1\S/C(=C\c2ccc(CCC(=O)OC)cc2)C(=O)N1c1ccccc1O [Compound 15b]	–
